Seven compounds from patent publication US20200102264A1, “MARMELIN ANALOGS AND METHODS OF USE IN CANCER TREATMENT” (THE UNIVERSITY OF KANSAS, priority 2014, published 2020) can be followed below.

Entries after “also recorded” stand apart in the source; their conditions may differ.

Common to all, as to format: cell-based
The subject of assay [1] is HCT116 colon cancer cells. The assay can be described thus: hexoseaminidase cell proliferation assay, HCT116. The text has this:
(§1) Using hexoseaminidase assay, we determined the effect of the compounds on cell proliferation. […]
(§2) Using hexoseaminidase assay, we determined the effect of the compounds on cell proliferation. […] […] […] Overall, the analogs can be used as chemotherapeutic agents against colon and pancreatic cancer.

In another assay the test system is SW480 colon cancer cells. The assay is described as follows: hexoseaminidase cell proliferation assay, SW480.
Description: as §1, §2

For assay [2], the system named is MiaPaCa-2 pancreatic cancer cells. The assay is described as follows: hexoseaminidase cell proliferation assay, MiaPaCa-2. The protocol: (§3) Using hexoseaminidase assay, we determined the effect of the compounds on cell proliferation. […] The IC50 value at 48 hours is below 10 μM in all the cancer cell lines.
(§4) Using hexoseaminidase assay, we determined the effect of the compounds on cell proliferation. […] The MRL16 IC50 value at 48 hours is below 0.3 μM in Colon cancer cell lines. […] Overall, the analogs can be used as chemotherapeutic agents against colon and pancreatic cancer.

The subject of assay [3] is PanC-1 pancreatic cancer cells. The assay can be described thus: hexoseaminidase cell proliferation assay, PanC-1. Here is the method:
as §3, §4

Assay [4] concerns colon, pancreatic and bladder cancer cells. The assay is described as follows: hexoseaminidase cell proliferation assay, summaries over cell lines. The following applies: dose and time dependent. Here is the method:
Water solubility studies were performed with the CD/analog complexes. […] The observed IC50 value of THBCD at 48 h is below 10 μM in all the colon, pancreatic and bladder cancer cells.
as §3, §4

For assay [5], the system named is HCT116 cells. The assay is described as follows: cell cycle analysis, HCT116. The following applies: HCT116, Table 3.
Assay [6] has as its system SW480 cells. The assay is described as follows: cell cycle analysis, SW480. Particulars: SW480, Table 3. The protocol:
The analogs were tested to determine the ability induce death of colon cancer cells.

Assay [7] has as its system HCT116 cells. The assay can be described thus: colony formation, HCT116.
Assay [8] deals with SW480 cells. The assay can be described thus: colony formation, SW480.
Another assay concerns cancer stem cells. The assay is described as follows: colonosphere formation. The protocol: It was also determined the analogs inhibit colonosphere formation from cancer stem cells. […] The columns are 0, 10, 25, and 50 micromolar concentrations of the compounds labeled by rows.
The effect of the compounds on colonosphere formation was determined. […] Overall, the analogs have shown they can be used as chemotherapeutic agents against colon, pancreatic and bladder cancer.

The test system of a further assay is KU7 bladder cancer cells. The assay can be described thus: hexoseaminidase cell proliferation assay, KU7. The protocol:
as §3

In assay [9] the test system is 253JBV bladder cancer cells. The assay can be described thus: hexoseaminidase cell proliferation assay, 253JBV. Here is the method: as §3
Another assay has as its system MiaPaCa-2 cells. The assay can be described thus: colony formation, MiaPaCa-2.
In the next assay the test system is PanC-1 cells. The assay is described as follows: colony formation, PanC-1.
Setting [10] is: Homo sapiens, HCT-116, HCT116, 24 h.
Where [11] appears, read: Homo sapiens, HCT-116, HCT116, 48 h.
Setting [12] is: Homo sapiens, HCT-116, HCT116, 72 h.
[13] abbreviates: Homo sapiens, MIA PaCa-2, MiaPaCa-2, 24 h.
[14] abbreviates: Homo sapiens, MIA PaCa-2, MiaPaCa-2, 48 h.
[15] abbreviates: Homo sapiens, MIA PaCa-2, MiaPaCa-2, 72 h.

In general, IC50 refers to the midpoint of a concentration-inhibition curve. A higher IC50 goes with lower potency. Take `C/C(=N\NC(=O)c1cc2ccccc2cc1O)c1ccc2ccccc2c1O` [MRL20]: the IC50 was more than 2 µM in assay [1] (HCT116, 24 h); 0.5 µM in assay [1] (HCT116, 48 h); 0.4 µM in assay [1] (HCT116, 72 h); more than 2 µM with SW480 colon cancer cells (SW480, 24 h); 1.2 µM in the assay with SW480 colon cancer cells (SW480, 48 h); 1 µM in the assay with SW480 colon cancer cells (SW480, 72 h). The IC50 is more than 10 µM in assay [2] (MiaPaCa-2, 24 h); 9 µM in assay [2] (MiaPaCa-2, 48 h); 8 µM in assay [2] (MiaPaCa-2, 72 h); more than 10 µM in assay [3] (PanC-1, 24 h); 5 µM in [3] (PanC-1, 48 h); 1 µM in assay [3] (PanC-1, 72 h). Also, the “inhibition of cell proliferation (in words)” value (shortened to “inhibition”) in assay [4] was “potent inhibitor”.

In the case of `C/C(=N\NC(=O)c1ccco1)c1ccc2ccccc2c1O` [MRL21], the IC50 is 10 µM in assay [1] (HCT116, 24 h); 3.8 µM in [1] (HCT116, 48 h); 3 µM in assay [1] (HCT116, 72 h); more than 10 µM with SW480 colon cancer cells (SW480, 24 h); 5 µM with SW480 colon cancer cells (SW480, 48 h); 3 µM with SW480 colon cancer cells (SW480, 72 h). For the same compound, the IC50 in assay [2] (MiaPaCa-2, 24 h) is more than 10 µM; in assay [2] (MiaPaCa-2, 48 h) it was 5 µM; in [2] (MiaPaCa-2, 72 h), 5 µM; in [3] (PanC-1, 24 h), more than 10 µM; in [3] (PanC-1, 48 h), 5 µM; in assay [3] (PanC-1, 72 h), 3 µM. Besides, the “inhibition” value in assay [4] was “potent inhibitor”.

On to `C/C(=N\NC(N)=S)c1ccc2ccccc2c1O` [MRL23], for which the IC50 in assay [1] (setting [10]) was more than 10 µM; in [1] (setting [11]) it was more than 10 µM; in assay [1] (setting [12]), more than 10 µM; in the assay on SW480 colon cancer cells (Homo sapiens, SW480, 24 h), more than 10 µM; in the assay with SW480 colon cancer cells (Homo sapiens, SW480, 48 h) it was more than 10 µM; in the assay with SW480 colon cancer cells (Homo sapiens, SW480, 72 h), more than 10 µM. The IC50 in assay [2] (setting [13]) was more than 10 µM; in assay [2] (setting [14]) it was 5 µM; in assay [2] (setting [15]), 4 µM; in assay [3] (Homo sapiens, PANC-1, 24 h) it was more than 10 µM; in assay [3] (Homo sapiens, PANC-1, 48 h), more than 10 µM; in assay [3] (Homo sapiens, PANC-1, 72 h) it was more than 10 µM. Besides, in [4], the “inhibition” value is recorded as “potent inhibitor”.

For the compound `C/C(=N\NC(=O)c1ccc(O)cc1)c1ccc2ccccc2c1O` [MRL24], the half-inhibitory concentration (IC50) in [1] (setting [10]) is more than 10 µM; in assay [1] (setting [11]), 3.5 µM; in assay [1] (setting [12]), 2 µM; in the assay with SW480 colon cancer cells (Homo sapiens, SW480, 24 h) it was more than 10 µM; in the assay with SW480 colon cancer cells (Homo sapiens, SW480, 48 h), 10 µM; with SW480 colon cancer cells (Homo sapiens, SW480, 72 h) it was 4 µM. The IC50 was more than 10 µM in [2] (setting [13]); more than 10 µM in [2] (setting [14]); 5 µM in [2] (setting [15]); more than 10 µM in [3] (Homo sapiens, PANC-1, 24 h); 5 µM in assay [3] (Homo sapiens, PANC-1, 48 h); 4 µM in assay [3] (Homo sapiens, PANC-1, 72 h). Besides, the “inhibition” value in assay [4] was “potent inhibitor”.

As for `O=C(N/N=C/c1ccc(O)c(O)c1)c1cc2ccccc2cc1O` [MRL DHB], the half-maximal inhibitory concentration (IC50) in assay [1] (HCT116, 24 h) was more than 50 µM; in assay [1] (HCT116, 48 h) it was more than 50 µM; in the assay with SW480 colon cancer cells (SW480, 24 h), more than 50 µM; in the assay with SW480 colon cancer cells (SW480, 48 h) it was more than 50 µM; in the assay with SW480 colon cancer cells (SW480, 72 h), 15 µM; in [2] (MiaPaCa-2, 24 h), more than 50 µM. In addition, the 50% inhibitory concentration (IC50) is 25 µM in assay [2] (MiaPaCa-2, 48 h); 10 µM in assay [2] (MiaPaCa-2, 72 h); 25 µM in assay [2] (MiaPaCa-2, 72 h, listed as DHB); more than 50 µM in [3] (PanC-1, 24 h); 15 µM in assay [3] (PanC-1, 48 h); 10 µM in [3] (PanC-1, 48 h, listed as DHB). In assay [3] (PanC-1, 72 h), the IC50 was 8 µM. Moreover, the “G0/G1 (%)” value is 40.7% in the assay on HCT116 cells [5] and 60.7% with SW480 cells [6]. For the same compound, the entries for the “G2M (%)” value with HCT116 cells [5] and with SW480 cells [6] were 10.4% and 18.4%, respectively. Further, the figures for the “S (%)” value in the assay on HCT116 cells [5] and with SW480 cells [6] were 13.0% and 14.1%, respectively. In addition, the figures for the “SubG0 Dead Cells (%)” value in the assay on HCT116 cells [5] and in the assay on SW480 cells [6] were 34.2% and 6.1%, respectively. Besides, in [4], the “inhibition” value is “potent inhibitor of proliferation of pancreatic cancer cells; also recorded: inhibit proliferation”. For the same compound, the colony formation result in the assay on HCT116 cells [7] and in the assay with SW480 cells [8] was “significantly inhibited colony formation” throughout. Moreover, the colonosphere formation entry in the assay with cancer stem cells was “significantly inhibited colonosphere formation”.

In the case of `O=C(N/N=C/c1ccc2ccccc2c1O)c1cc2ccccc2cc1O` [NAL], the half-inhibitory concentration (IC50) in assay [1] (HCT116, 24 h) worked out at 10 µM; in [1] (HCT116, 48 h), 6 µM; in [1] (HCT116, 72 h), 6 µM; with SW480 colon cancer cells (SW480, 24 h), 25 µM; in the assay with SW480 colon cancer cells (SW480, 48 h) it was 8 µM; in the assay on SW480 colon cancer cells (SW480, 72 h), 8 µM. Besides, the IC50 in assay [2] (MiaPaCa-2, 24 h) was found to be 40 µM; in assay [2] (MiaPaCa-2, 48 h), 8 µM; in assay [2] (MiaPaCa-2, 72 h) it was 6 µM; in assay [3] (PanC-1, 24 h), 45 µM; in assay [3] (PanC-1, 48 h) it was 10 µM; in [3] (PanC-1, 72 h), 7 µM. The IC50 in the assay on KU7 bladder cancer cells (KU7, 24 h) is 10 µM; with KU7 bladder cancer cells (KU7, 48 h), 10 µM; in the assay on KU7 bladder cancer cells (KU7, 72 h) it was 6 µM; in assay [9] (24 h) it was more than 50 µM; in assay [9] (48 h), 10 µM; in [9] (72 h) it was 7 µM. Moreover, in [4], the “inhibition” value is “potent inhibitor”. The colony formation entry with HCT116 cells [7], with SW480 cells [8], in the assay on MiaPaCa-2 cells and in the assay with PanC-1 cells was “inhibit colony formation” in each case. Moreover, in the assay on cancer stem cells, the colonosphere formation result was “potent inhibitors of colonosphere formation”.

In the case of `O=C(N/N=C/c1ccccc1O)c1cc2ccccc2cc1O` [SAL], the IC50 is 25 µM in assay [1] (HCT116, 24 h); 8 µM in [1] (HCT116, 48 h); 6 µM in assay [1] (HCT116, 72 h); more than 50 µM in the assay on SW480 colon cancer cells (SW480, 24 h); more than 50 µM with SW480 colon cancer cells (SW480, 48 h); 8 µM in the assay with SW480 colon cancer cells (SW480, 72 h). Moreover, the IC50 in assay [2] (MiaPaCa-2, 24 h) was more than 50 µM; in assay [2] (MiaPaCa-2, 48 h), more than 50 µM; in [2] (MiaPaCa-2, 72 h) it was 8 µM; in [3] (PanC-1, 24 h) it was more than 50 µM; in assay [3] (PanC-1, 48 h) it was 10 µM; in [3] (PanC-1, 72 h), 8 µM. The colony formation result in the assay with HCT116 cells [7], with SW480 cells [8], in the assay with MiaPaCa-2 cells and with PanC-1 cells was “inhibit colony formation” throughout. Besides, the colonosphere formation result with cancer stem cells was “potent inhibitors of colonosphere formation”.
